Measurements taken from ChEMBL document CHEMBL1201862, “PubChem BioAssay data set” (2004).
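Each compound was tested at five concentrations against cells in 96-well plates for 48 hours. Here, GI50 denotes the concentration required for 50% inhibition of growth.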 The source made the active and inactive calls. Rule as the data show it: active = GI50 up to about 1.1 µM and inactive = higher.

Key:
Experiment in all cases: growth of human tumour cells (NCI), 48 h
MDA-MB-231 = system: MDA-MB-231
UACC-257 = system: UACC-257
MDA-MB-435 = system: MDA-MB-435
OVCAR-4 = system: OVCAR-4
CAKI-1 = system: CAKI-1
SK-MEL-28 = system: SK-MEL-28
K562 = system: K562
OVCAR-8 = system: OVCAR-8
KM12 = system: KM12
SF-539 = system: SF-539
HCT-15 = system: HCT-15
Hs-578T = system: Hs-578T
SF-268 = system: SF-268
SR = system: SR
HOP-62 = system: HOP-62
UO-31 = system: UO-31
NCI-H460 = system: NCI-H460
MOLT-4 = system: MOLT-4
MCF7 = system: MCF7
A549 = system: A549
SK-MEL-2 = system: SK-MEL-2
EKVX = system: EKVX
COLO 205 = system: COLO 205
OVCAR-5 = system: OVCAR-5
SN12C = system: SN12C
HCT-116 = system: HCT-116
HL-60 = system: HL-60
NCI-H23 = system: NCI-H23
CCRF-CEM = system: CCRF-CEM
RXF 393 = system: RXF 393
M14 = system: M14
SK-OV-3 = system: SK-OV-3
SNB-19 = system: SNB-19
DU-145 = system: DU-145
SW-620 = system: SW-620
TK-10 = system: TK-10
RPMI-8226 = system: RPMI-8226
HOP-92 = system: HOP-92
786-0 = system: 786-0
T47D = system: T47D
HCC 2998 = system: HCC 2998
U-251 = system: U-251
SNB-75 = system: SNB-75
PC-3 = system: PC-3
A498 = system: A498
NCI-H522 = system: NCI-H522
OVCAR-3 = system: OVCAR-3
NCI-H226 = system: NCI-H226
IGROV-1 = system: IGROV-1
SK-MEL-5 = system: SK-MEL-5
Malme-3M = system: Malme-3M
HT-29 = system: HT-29
SF-295 = system: SF-295
NCI/ADR-RES = system: NCI/ADR-RES
ACHN = system: ACHN
MDA-N = system: MDA-N
LOX IMVI = system: LOX IMVI

## Cc1cccc2c1CC1(C2)Cc2c(C)cccc2C1=O (configuration not stated)
MDA-MB-231
  GI50: 23.6 µM (inactive)
UACC-257
  GI50: 23 µM (inactive)
MDA-MB-435
  GI50: 24.8 µM (inactive)
OVCAR-4
  GI50: 30.6 µM (inactive)
CAKI-1
  GI50: 10.3 µM (inactive)
SK-MEL-28
  GI50: 21.6 µM (inactive)
K562
  GI50: 26.5 µM (inactive)
OVCAR-8
  GI50: 42.9 µM (inactive)
KM12
  GI50: 25.2 µM (inactive)
SF-539
  GI50: 25.9 µM (inactive)
HCT-15
  GI50: 29 µM
Hs-578T
  GI50: 37.6 µM (inactive)
SF-268
  GI50: 26.7 µM (inactive)
SR
  GI50: 11.2 µM (inactive)
HOP-62
  GI50: 23.6 µM (inactive)
UO-31
  GI50: 23.1 µM (inactive)
NCI-H460
  GI50: 22.7 µM (inactive)
MOLT-4
  GI50: 9.91 µM (inactive)
MCF7
  GI50: 27.2 µM (inactive)
A549
  GI50: 22.4 µM (inactive)
SK-MEL-2
  GI50: 16.9 µM (inactive)
EKVX
  GI50: 16 µM (inactive)
COLO 205
  GI50: 15.6 µM (inactive)
OVCAR-5
  GI50: 28.7 µM (inactive)
SN12C
  GI50: 23.2 µM (inactive)
HCT-116
  GI50: 16.5 µM (inactive)
HL-60
  GI50: 26.7 µM (inactive)
NCI-H23
  GI50: 31.4 µM (inactive)
CCRF-CEM
  GI50: 21.3 µM (inactive)
RXF 393
  GI50: 15.6 µM (inactive)
M14
  GI50: 26.6 µM (inactive)
SK-OV-3
  GI50: 29.8 µM (inactive)
SNB-19
  GI50: 49.3 µM (inactive)
DU-145
  GI50: 18.8 µM (inactive)
SW-620
  GI50: 29.9 µM (inactive)
TK-10
  GI50: 23.6 µM (inactive)
RPMI-8226
  GI50: 14.8 µM (inactive)
HOP-92
  GI50: 16.6 µM (inactive)
786-0
  GI50: 23.8 µM (inactive)
T47D
  GI50: 44.8 µM (inactive)
HCC 2998
  GI50: 26.1 µM (inactive)
U-251
  GI50: 23.8 µM (inactive)
SNB-75
  GI50: 18.6 µM (inactive)
PC-3
  GI50: 31.7 µM (inactive)
A498
  GI50: 32.1 µM (inactive)
NCI-H522
  GI50: 17.8 µM (inactive)
OVCAR-3
  GI50: 23.9 µM (inactive)
NCI-H226
  GI50: 26.8 µM (inactive)
IGROV-1
  GI50: 30.4 µM (inactive)
SK-MEL-5
  GI50: 18.2 µM (inactive)
Malme-3M
  GI50: 22.7 µM (inactive)
HT-29
  GI50: 29.9 µM (inactive)
SF-295
  GI50: 27.9 µM (inactive)
NCI/ADR-RES
  GI50: 38.1 µM (inactive)
ACHN
  GI50: 24.9 µM (inactive)
MDA-N
  GI50: 26.9 µM (inactive)
LOX IMVI
  GI50: 17.5 µM (inactive)
